Reference: patent US8309790B2, “Animal models for demyelination disorders” (University of Chicago, priority 2005, dated 2012)
Like-named read-outs stand apart in the source and are kept apart here.

B1: suppressor of cytokine signaling 1 (protein, UniProt O35716 1-212, looked up)
Suppressor of cytokine …: MVARNQVAADNAISPAAEPRRRSEPSSSSSSSSPAAPVRPRPCPAVPAPAPGDTHFRTFRSHSDYRRITRTSALLDACGFYWGPLSVHGAHERLRAEPVGTFLVRDSRQRNCFFALSVKMASGPTSIRVHFQAGRFHLDGSRETFDCLFELLEHYVAAPRRMLGAPLRQRRVRPLQELCRQRIVAAVGRENLARIPLNPVLRDYLSSFPFQI
modifications: Flag tag

Columns and labels:
[1] = system: PP1-GADD34 phosphatase; conditions: results in sustained eIF2α phosphorylation, cited from earlier work
[2] = system: Hippocampal organotypic cultures; assay: Hippocampal organotypic cultures (HOC), in vitro model of myelination, MBP Western blot; type: cell-based; conditions: for reduction of MBP expression elicited by IFN-γ exposure: SAL at various concentrations combined with 100 U/ml IFN-γ for 7 days
Description: Our hypothesis is that the integrated stress response has the potential to protect oligodendrocytes from the harmful effects of the inflammatory response in patients with multiple sclerosis (MS). […] To test whether agents that prolong eIF2α phosphorylation might provide protection to oligodendrocytes against detrimental inflammatory factors, the effect of Salubrinol (Sal) in the presence of the immune cytokine IFN-γ was tested in an in vitro model of myelination.
HOCs, were prepared and maintained as described previously (Kunkler and Kraig (1997) J Cereb Blood Flow Metab. 17:26-43), and were maintained in vitro for 7 days before use. SAL at various concentrations was combined with 100 U/ml IFN-γ and added to the HOC cultures for 7 days. […] After 7 days of 100 U/ml IFN-γ exposure, the levels of MBP decreased approximately 80% in the HOCs (FIG. 29).

[3] = system: transgenic littermates overexpressing IFN-γ and/or SOCS1; assay: IFN-γ-overexpressing mice crossed to PLP/SOCS1 mice, clinical and histological evaluation at postnatal day 21; type: in vivo; conditions: for Incidence of tremor: ten mice per group; for oligodendrocyte density: corpus callosum, postnatal day 21
Excerpt: The transgenic mice MBP/IFN-γ and GFAP/tTA×TRE/IFN-γ (lines 184/110 and 184/67) that overexpress IFN-γ in the CNS have been described elsewhere (Corbin et al., 1996; Gao et al., 2000; Lin et al., 2004, 2005). Briefly, MBP/IFN-γ mice are transgenic animals in which IFN-γ expression is driven by the myelin basic protein (MBP) transcriptional control region (Gao et al., 2000). GFAP/tTA×TRE/IFN-γ are double-transgenic mice obtained by mating single-transgenic GFAP/tTA to single-transgenic TRE/IFN-γ (lines 110 and 67) mice. The two TRE/IFN-γ mouse lines, line 110 and line 67, used in the experiments produce different amounts of IFN-γ when crossed to GFA/tTA mice (184/110 and 184/67) (Lin e al., 2004, 2005). GFAP/tTA×TRE/IFN-γ is a tetracycline-off-inducible system in which the glial fibrilary acidic protein (GFAP) transcriptional control region drives the expression of tTA, which in turn, binds to the TRE (tet responsive element) and initiates the expression of IFN-γ. Administration of doxycycline suppresses tTA DNA binding and IFN-γ expression, and doxycycline removal allows for temporally-controlled induction of IFN-γ expression (Gao et al., 1999).
IFN-γ-overexpressing mice were crossed to the PLP/SOCS1 mice in double-transgenic, (MBP/IFN-γ×PLP/SOCS1) and triple-transgenic (GFAP/tTA×TRE/IFN-γ×PLP/SOCS1) mating systems. MBP/IFN-γ×PLP/SOCS1 (172×PLP/SOCS1) mating was performed according to a standard mating protocol. The GFAP/tTA×TRE/IFN-γ×PLP/SOCS1 matings were performed in a 2-step mating process: GFAP/tTA mice were initially crossed to PLP/SOCS1 mice, and double-positive (184×PLP/SOCS1) offspring were then crossed to the TRE/IFN-γ lines 110 and 67, separately. This second mating step was performed according to the previously described “tet-off” protocol. Doxycycline 0.05 mg/ml (Sigma-Aldich) was added to the water of impregnated female mice until embryonic day 14, after which the animals were switched back to normal water, thereby allowing initiation of IFN-γ transcription, which peaks during the postnatal period (Lin et al., 2005).
The litters of the mating systems (F1 generation) were examined daily and sacrificed at postnatal day 21. Clinical evaluation included behavioral observation and challenged ladder walking to elicit tremor. Histological examination included quantitation of the number and density of oligodendrocytes and examination of the myelination patterns. Brain tissue was simultaneously obtained from each animal at the time of sacrifice to verify and measure the expression of IFN-γ and Flag-SOCS1 (see below). The clinical and histological findings were subsequently stratified according to genotype. All animal procedures were conducted in compliance with the National Institutes of Health Guide for Care and Use of Laboratory Animals and were approved by the Institutional Animal Care and Use Committee at The University of Chicago.
Oligodendrocyte cell density was assessed digitally using Axiovision software, at postnatal day 21, as previously described (Lin et al., 2005). The brains were sectioned sagittally through the corpus callosum dividing the brain in two symmetrical halves. Ten frozen sections from each half were prepared at 7 μm thickness, and numbered in the sequence of their preparation. The brains of three animals per study group were prepared in this fashion. Following the CC1 immunostaining the corresponding area of corpus callosum of each section was digitally selected and the corresponding total area obtained. CC1 cell counting was performed manually within the selected areas of each section, and the number of CC1 positive cells per square area (mm^2) calculated. The results were presented as mean±SD of CC1 (+) cells/mm^2 with n=3 animals per study group. […]

| Molecule | PP1-GADD34 phosphatase activity [1] | PP1-GADD34 phosphatase activity ([1]; listed as Salubrinol) | reduction of MBP expression elicited by IFN-γ exposure [2] | reduction of MBP expression elicited by IFN-γ exposure ([2]; listed as Sal) | MBP expression ([2]; SAL treatment alone) | Incidence of tremor ([3]; 172 × PLP/SOCS1 mating system) [%] | Incidence of tremor ([3]; 184/67 × PLP/SOCS1 mating system) [%] | oligodendrocyte density ([3]; 184/67 × PLP/SOCS1 system) | Incidence of tremor ([3]; 184/110 × PLP/SOCS1 mating system) [%] | oligodendrocyte density ([3]; 184/110 × PLP/SOCS1 system) |
| --- | --- | --- | --- | --- | --- | --- | --- | --- | --- | --- |
| O=C(/C=C/c1ccccc1)NC(NC(=S)Nc1cccc2cccnc12)C(Cl)(Cl)Cl (stereo not shown) [SAL, salubrinal] | specifically inhibits | specifically inhibit | markedly attenuated | attenuating effect | did not affect |  |  |  |  |  |
| B1 |  |  |  |  |  | 0 | 0 | 142±5 CC1 (+) cells/mm^2 | 0 | 141±6 CC1 (+) cells/mm^2 |
